Data from ChEMBL document CHEMBL4321783, “Recent Progress in Natural-Product-Inspired Programs Aimed To Address Antibiotic Resistance and Tolerance” (J Med Chem, 2019).
≈ marks a conversion by molar mass, not a printed value. Blank lines part the entries; values can stand above or below the compound they belong to. Positions of bridges follow the written chain, without caps; N, C: chain ends. Non-standard residues stand in square brackets, D forms with d. Residues, ends and D or L forms follow the SMILES beside them. *: point of attachment. Phe(3,5-F2) = N[C@@H](Cc1cc(F)cc(F)c1)C(=O)O; Pip(4S-Me) = C[C@H]1CCN[C@H](C(=O)O)C1; Heptenoyl(2E) = CCCC/C=C/C(=O)*; aThr = C[C@H](O)[C@H](N)C(=O)O

Tests used:
Staphylococcus aureus [1] = assay: Antibiofilm activity against methicillin-resistant Staphylococcus aureus 1707 assessed as induction of change in gene expression 0.625 uM after 20 hrs by RNA sequencing data based analysis relative to control; type: functional
Staphylococcus aureus [2] = assay: Antibiofilm activity against methicillin-resistant Staphylococcus aureus assessed as increase in isdB expression at 0.625 uM after 4 hrs by RT-qPCR analysis relative to control; type: functional
Pseudomonas aeruginosa [3] = assay: Growth inhibition of Pseudomonas aeruginosa PA14 after 24 hrs; type: functional, organism-based; details: PA14, 24 h
Pseudomonas aeruginosa [4] = assay: Growth inhibition of Pseudomonas aeruginosa PAO1 after 24 hrs; type: functional, organism-based; details: PAO1, 24 h
Staphylococcus aureus [5] = assay: Antibacterial activity against Staphylococcus aureus by CLSI protocol based dilution method; type: functional
Staphylococcus aureus [6] = assay: Antibiofilm activity against methicillin-resistant Staphylococcus aureus 2 assessed as induction of biofilm eradication incubated for 24 hrs followed by 3 times wash out with water and subsequent compound addition measured after 24 hrs; type: functional
Staphylococcus aureus [7] = assay: Antibiofilm activity against […] methicillin-resistant Staphylococcus aureus 2 assessed as induction of biofilm eradication incubated for 24 hrs followed by 3 times wash out with water and subsequent compound addition measured after 24 hrs; type: functional

SMILES: Oc1c(Br)cc(I)c2nc3cc(Cl)c(Cl)cc3nc12
- fold change (FC) (Staphylococcus aureus [1]): >=2
- fold change (FC) (Staphylococcus aureus [2]): 22.3

SMILES: CCCCCC[C@H](CCCCC[C@@H](O)C(N)=O)OC(=O)[C@@H]1CC=CN1C(=O)c1ccccc1O
- IC50 (Pseudomonas aeruginosa [3]): 67 to 130 nM
- IC50 (Pseudomonas aeruginosa [4]): 1000 nM

- MIC (Staphylococcus aureus [5]): 0.0306 µM (≈ 0.024 µg/mL)
SMILES: CCCC/C=C/C(=O)N[C@@H](Cc1cc(F)cc(F)c1)C(=O)N[C@@H]1C(=O)N2CCC[C@H]2C(=O)N2CC[C@H](C)C[C@H]2C(=O)N[C@@H](C)C(=O)N2CCC[C@H]2C(=O)O[C@H]1C ({Heptenoyl(2E)}-[Phe(3,5-F2)][aThr]P[Pip(4S-Me)]AP; ester 2-C)

SMILES: CN[C@H](CC(C)C)C(=O)N[C@H]1C(=O)N[C@@H](CC(N)=O)C(=O)N[C@H]2C(=O)N[C@H]3C(=O)N[C@H](C(=O)N[C@H](C(=O)O)c4cc(O)cc(O)c4-c4cc3ccc4O)[C@H](O)c3ccc(c(Cl)c3)Oc3cc2cc(c3O[C@@H]2O[C@H](CO)[C@@H](O)[C@H](O)[C@H]2O[C@H]2C[C@](C)(N)[C@H](O)[C@H](C)O2)Oc2ccc(cc2Cl)[C@H]1O [VANCOMYCIN]
- MBEC (Staphylococcus aureus [6]): >2000 µM
- MBEC (Staphylococcus aureus [7]): 4 µM
